Read-outs that look alike come from different tables or passages of the source.
Key:
Experiment in all cases: Determination of MIC values (BHI broth, 96 well microtiter plate)
Assay type in all cases: cell-based
[1] = tested on: methicillin-resistant Staphylococcus aureus (MRSA); conditions: Staphylococcus aureus, MRSA, 16 h, read-out: MIC MRSA
Outline: (§1)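 Organisms are grown in BHI at 37° C (about 7% CO2) to a 0.5 McFarland standard, then inoculated at 10^5 to 10^6 cells/mL into BHI holding twofold compound dilutions (final 25 down to 0.39 µg/mL, DMSO-diluted). After overnight incubation, MIC is the lowest concentration lacking growth.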

[2] = tested on: vancomycin-resistant Enterococcus spp. (VRE); conditions: Enterococcus, VRE, 16 h, read-out: MIC VREF
Outline: as §1

Streptococcus pneumoniae = conditions: Streptococcus pneumoniae, read-out: MIC S. pneu
Outline: as §1

[3] = BHI broth, 37° C., about 16 hours

Row | SMILES | MIC [1, 3] [mg/L] | MIC [2, 3] [mg/L] | MIC (Streptococcus pneumoniae; [3]) [mg/L] | MIC [1] [mg/L] | MIC [2] [mg/L] | MIC (Streptococcus pneumoniae; 16 h) [mg/L]
1 | COc1ccc2nc(-c3c[nH]c4cc(F)ccc34)ccc2c1 [Example 413] | > 25 | > 25 | > 25 | – | – | –
2 | COc1ccc2nc(-c3c[nH]c4cc(Cl)ccc34)ccc2c1 [Example 414] | > 25 | > 25 | > 25 | – | – | –
3 | COc1ccc2nc(-c3c[nH]c4ccc(C)cc34)ccc2c1 [Example 415] | < 7 | > 25 | > 25 | – | – | –
4 | COc1ccc2nc(-c3c[nH]c4ccc(Cl)cc34)ccc2c1 [Example 416] | < 7 | > 25 | < 7 | – | – | –
5 | C[Si](C)(C)CCOC(=O)n1cc(-c2nc3ccc(Cl)cc3c3c2CCO3)c2cc(Br)ccc21 [Example 421] | – | – | – | > 25 | > 25 | > 25
6 | Cc1cccc2ccc(-c3c[nH]c4ccc(Br)cc34)nc12 [Example 422] | > 25 | > 25 | > 25 | – | – | –
7 | Cc1cccc2ccc(-c3c[nH]c4cc(F)ccc34)nc12 [Example 423] | > 25 | > 25 | > 25 | – | – | –
8 | COc1ccc2[nH]c(C)c(-c3ccc4cccc(C)c4n3)c2c1 [Example 424] | < 25 | > 25 | < 25 | – | – | –
9 | Cc1[nH]c2ccc(Cl)cc2c1-c1ccc2cccc(C)c2n1 [Example 425] | < 7 | < 7 | < 7 | – | – | –
10 | Cc1ccc2[nH]c(C)c(-c3ccc4cccc(C)c4n3)c2c1 [Example 426] | < 25 | > 25 | < 25 | – | – | –
11 | Cc1cccc2ccc(-c3c[nH]c4ccc(Cl)cc34)nc12 [Example 427] | > 25 | > 25 | > 25 | – | – | –
12 | COc1ccc2nc(-c3c(C)[nH]c4ccc(OC)cc34)ccc2c1 [Example 428] | > 25 | > 25 | > 25 | – | – | –
13 | COc1ccc2nc(-c3c(C)[nH]c4ccc(Cl)cc34)ccc2c1 [Example 429] | < 7 | > 25 | < 7 | – | – | –
14 | COc1ccc2nc(-c3c[nH]c4ccc(OC)cc34)ccc2c1 [Example 430] | < 25 | > 25 | < 25 | – | – | –
15 | COc1ccc2nc(-c3c(C)[nH]c4ccc(C)cc34)ccc2c1 [Example 431] | > 25 | > 25 | > 25 | – | – | –
16 | Cc1ccc2nc(-c3c[nH]c4ccc(Br)cc34)ccc2c1 [Example 432] | < 7 | > 25 | < 7 | – | – | –
17 | COc1ccc2[nH]c(C)c(-c3ccc4cc(C)ccc4n3)c2c1 [Example 434] | > 25 | > 25 | > 25 | – | – | –
18 | Cc1ccc2nc(-c3c[nH]c4cc(F)ccc34)ccc2c1 [Example 435] | > 25 | > 25 | > 25 | – | – | –
19 | Cc1ccc2nc(-c3c[nH]c4cc(Cl)ccc34)ccc2c1 [Example 436] | < 7 | > 25 | < 7 | – | – | –
20 | Cc1ccc2nc(-c3c(C)[nH]c4ccc(Cl)cc34)ccc2c1 [Example 437] | < 7 | > 25 | < 7 | – | – | –
21 | COc1ccc2[nH]cc(-c3ccc4cc(C)ccc4n3)c2c1 [Example 438] | > 25 | > 25 | > 25 | – | – | –
22 | Cc1ccc2nc(-c3c(C)[nH]c4ccc(C)cc34)ccc2c1 [Example 439] | > 25 | > 25 | > 25 | – | – | –
23 | Cc1ccc2nc(-c3c[nH]c4ccc(C)cc34)ccc2c1 [Example 440] | > 25 | > 25 | < 25 | – | – | –
24 | Cc1ccc2nc(-c3c[nH]c4ccc(Cl)cc34)ccc2c1 [Example 441] | > 25 | > 25 | > 25 | – | – | –
25 | OCc1cc(-c2c[nH]c3ccc(Br)cc23)nc2ccccc12 [Example 442] | < 7 | < 25 | < 7 | – | – | –
26 | OCc1cc(-c2c[nH]c3ccc(Br)cc23)nc2ccc(F)cc12 [Example 443] | < 7 | < 25 | < 7 | – | – | –
27 | OCc1cc(-c2c[nH]c3ccc(Br)cc23)nc2c(F)cccc12 [Example 444] | < 7 | < 25 | < 7 | – | – | –
28 | OCc1cc(-c2c[nH]c3ccc(Br)cc23)nc2ccc(Br)cc12 [Example 445] | < 7 | < 7 | < 7 | – | – | –
